Molecules are shown by their SMILES.

The first experiment deals with T1, human Y5 receptor (Homo sapiens, UniProt Q15761).
T1 construct: expressed in transfected cells; host or cells: mouse fibroblast LM(tk-) cells, e.g. L-hY5-7 (ATCC CRL-11995)
T1 sequence (Q15761 1-445): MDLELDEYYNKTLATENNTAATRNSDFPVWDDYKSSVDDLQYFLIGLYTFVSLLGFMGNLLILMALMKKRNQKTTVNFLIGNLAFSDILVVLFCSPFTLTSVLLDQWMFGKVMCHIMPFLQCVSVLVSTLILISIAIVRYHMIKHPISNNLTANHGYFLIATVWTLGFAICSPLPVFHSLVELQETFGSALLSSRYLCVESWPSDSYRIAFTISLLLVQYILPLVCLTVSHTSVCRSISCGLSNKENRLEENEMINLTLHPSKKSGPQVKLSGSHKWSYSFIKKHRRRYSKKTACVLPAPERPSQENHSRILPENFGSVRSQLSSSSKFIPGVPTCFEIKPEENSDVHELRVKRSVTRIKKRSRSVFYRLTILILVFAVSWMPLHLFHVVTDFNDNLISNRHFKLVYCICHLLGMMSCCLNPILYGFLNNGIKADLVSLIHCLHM
Description: Radioligand binding to membranes, cloned human Y5 receptor. As to conditions: Table 1; read-out: Ki (nM) hNPY-5.
Description: Binding of the compounds of the present invention to human Y1, Y2, Y4, and Y5 receptors was evaluated using stably transfected 293 or LM(tk-) cells as described above.
Membranes were harvested from COS-7 cells 48 hours after transient transfection. Adherent cells were washed twice in ice-cold phosphate buffered saline (138 mM NaCl, 8.1 mM Na2HPO4, 2.5 mM KCl, 1.2 mM KH2PO4, 0.9 mM CaCl2, 0.5 mM MgCl2, pH 7.4) and lysed by sonication in ice-cold sonication buffer (20 mM Tris-HCl, 5 mM EDTA, pH 7.7). Large particles and debris were cleared by low speed centrifugation (200×g, 5 min, 4° C.). Membranes were collected from the supernatant fraction by centrifugation (32,000×g, 18 min, 4° C.), washed with ice-cold hypotonic buffer, and collected again by centrifugation (32,000×g, 18 min, 4° C.). The final membrane pellet was resuspended by sonication into a small volume of ice-cold binding buffer (˜1 ml for every 5 plates: 10 mM NaCl, 20 mM HEPES, 0.22 mM KH2PO4, 1.26 mM CaCl2, 0.81 mM MgSO4, pH 7.4). Protein concentration was measured by the Bradford method (Bradford, 1976) using Bio-Rad Reagent, with bovine serum albumin as a standard. Membranes were held on ice for up to one hour and used fresh, or flash-frozen and stored in liquid nitrogen.
Membranes were prepared similarly from 293, LM(tk-), and NIH-3T3 cells.
Membrane suspensions were diluted in binding buffer supplemented with 0.1% bovine serum albumin to yield an optimal membrane protein concentration so that ^125I-PYY (or alternative radioligand such as ^125I-NPY, ^125I-NYY3-36, or ^125I-[Leu^31Pro^34]PYY) bound by membranes in the assay was less than 10% of ^125I-PYY (or alternative radioligand) delivered to the sample (100,000 dpm/sample=0.08 nM for competition binding assays). ^125I-PYY (or alternative radioligand) and peptide competitors were also diluted to desired concentrations in supplemented binding buffer. Individual samples were then prepared in 96-well polypropylene microtiter plates by mixing ^125I-PYY (25 μL) (or alternative radioligand), competing peptides or supplemented binding buffer (25 μL), and finally, membrane suspensions (200 μL). Samples were incubated in a 30° C. water bath with constant shaking for 120 min. Incubations were terminated by filtration over Whatman GF/C filters (pre-coated with 1% polyethyleneimine and air-dried before use), followed by washing with 5 mL of ice-cold binding buffer. Filter-trapped membranes were impregnated with MeltiLex solid scintillant (Wallac, Turku, Finland) and counted for ^125I in a Wallac Beta-Plate Reader. Alternatively, incubations were carried out in GF/C filter plates (pre-coated with 1% polyethyleneimine and air-dried before use), followed by vacuum filtration and three washes of 300 μL of ice-cold binding buffer. 50 μL of UltimaGold (Packard) scintillant were added and counted for ^125I, in a Wallac MicroBeta Trilux. Non-specific binding was defined by 300 nM human NPY for all receptors except the Y4 subtypes; 100 nM human PP was used for the human Y4 and 100 nM rat PP for the rat Y4.
What is called Ki is the equilibrium dissociation constant of an inhibitor or competing ligand from its target. As for `CCCNc1nc(NCC2CCC(CNS(=O)(=O)c3cccc4ccccc34)CC2)nc(NC(C)C)n1` (stereo not drawn) [Example 5, N1-[4-([4-(isopropylamino)-6-(propylamino)-1,3,5-triazin-2-yl]aminomethyl)cyclohexyl]methyl-1-naphthalenesulfonamide], the Ki turned out to be 18 nM.
In the case of `CCN(CC)c1nc(NCC2CCC(CNS(=O)(=O)c3cccc4ccccc34)CC2)nc(NC(C)C)n1` (stereo not drawn) [Example 19, N1-[4-([4-(diethylamino)-6-(isopropylamino)-1,3,5-triazin-2-yl]aminomethyl)cyclohexyl]methyl-1-naphthalenesulfonamide], the Ki amounted to 53 nM.
On the same count and under the same terms, the figure for `CC(C)Nc1nc(NCCN(C)C)nc(NCC2CCC(CNS(=O)(=O)c3cccc4ccccc34)CC2)n1` (stereo not drawn) [Example 14, N1-{[4-({[4-{[2-(dimethylamino)ethyl]amino}-6-(isopropylamino)-1,3,5-triazin-2-yl]amino}methyl)cyclohexyl]methyl}-1-naphthalenesulfonamide] is 194 nM; for `CCNc1nc(NCC2CCC(CNS(=O)(=O)c3cccc4ccccc34)CC2)nc(NC(C)C)n1` (stereo not drawn) [Example 2, N1-[4-([4-(ethylamino)-6-(isopropylamino)-1,3,5-triazin-2-yl]aminomethyl)cyclohexyl]methyl-1-naphthalenesulfonamide] it is 7 nM.
For the molecule `CC(C)Nc1nc(NCC2CCC(CNS(=O)(=O)c3cccc4ccccc34)CC2)nc(NC(C)C)n1` (stereo not drawn) [Example 4, N1-{[4-({[4,6-Di(isopropylamino)-1,3,5-triazin-2-yl]amino}methyl)cyclohexyl]methyl}-1-naphthalenesulfonamide], the Ki stood at 23 nM.
`CCN(C)c1nc(NCC2CCC(CNS(=O)(=O)c3cccc4ccccc34)CC2)nc(NC(C)C)n1` (stereo not drawn) [Example 18, N1-[4-([4-[ethyl(methyl)amino]-6-(isopropylamino)-1,3,5-triazin-2-yl]aminomethyl)cyclohexyl]methyl-1-naphthalenesulfonamide]: the Ki came out at 32 nM.
With `CC(C)Nc1nc(NCC2CCC(CNS(=O)(=O)c3cccc4ccccc34)CC2)nc(N2CCCCC2C)n1` (stereo not drawn) [Example 23, N1-[4-([4-(isopropylamino)-6-(2-methylpiperidino)-1,3,5-triazin-2-yl]aminomethyl)cyclohexyl]methyl-1-naphthalenesulfonamide], the Ki amounted to 68 nM.
For `CC(C)Nc1nc(NCC2CCC(CNS(=O)(=O)c3cccc4ccccc34)CC2)nc(N2C[C@@H](C)O[C@@H](C)C2)n1` (stereo partly drawn) [Example 25, N1-{[4-({[4-[(2R,6S)-2,6-dimethyl-1,4-oxazinan-4-yl]-6-(isopropylamino)-1,3,5-triazin-2-yl]amino}methyl)cyclohexyl]methyl}-1-naphthalenesulfonamide], the Ki worked out at 135 nM.

Staying with this experiment, now noted: Table 2; read-out: Ki (nM) hNPY-5.
With `CCNc1nc(NCC)nc(NCC2CCC(CNS(C)(=O)=O)CC2)n1` (stereo not drawn) [Example 42, N-[4-([4,6-di(ethylamino)-1,3,5-triazin-2-yl]aminomethyl)cyclohexyl]methylmethanesulfonamide], the Ki was determined as 3070 nM.
For the molecule `CCNc1nc(NCC)nc(NCC2CCC(CNS(=O)(=O)c3ccccc3F)CC2)n1` (stereo not drawn) [Example 32, N1-[4-([4,6-di(ethylamino)-1,3,5-triazin-2-yl]aminomethyl)cyclohexyl]methyl-2-fluoro-1-benzenesulfonamide], the Ki was 35 nM.

Staying with this experiment, now noted: Table 3; read-out: Ki (nM) hNPY-5.
For the molecule `CN(C)S(=O)(=O)NCC1CCC(CNc2nc(N3CCOCC3)nc(N3CCOCC3)n2)CC1` (stereo not drawn) [Example 50, N′-[(4-[(4,6-dimorpholino-1,3,5-triazin-2-yl)amino]methylcyclohexyl)methyl]-N,N-dimethylsulfamide], the Ki came out at 3510 nM.
Turning to `CC(C)Nc1nc(NCC2CCC(CNS(=O)(=O)NC3CC3)CC2)nc(NC2CC2)n1` (stereo not drawn) [Example 47, N-cyclopropyl-N′-[4-([4-(cyclopropylamino)-6-(isopropylamino)-1,3,5-triazin-2-yl]aminomethyl)cyclohexyl]methylsulfamide], the Ki is 359 nM.
Consider `CN(C)S(=O)(=O)NCC1CCC(CNc2nc(Cl)nc(Cl)n2)CC1` (stereo not drawn) [Example 53, N′-((4-(((4,6-dichloro-1,3,5-triazin-2-yl)amino)methyl)cyclohexyl)methyl)-N,N-dimethylsulfamide], for which the Ki is 20700 nM.
For `O=S(=O)(NCC1CCC(CNc2nc(NC3CC3)nc(-c3ccccn3)n2)CC1)c1ccc(F)cc1` (stereo not drawn) [Example 55, N1-[4-([4-(cyclopropylamino)-6-(2-pyridyl)-1,3,5-triazin-2-yl]aminomethyl)cyclohexyl]methyl-4-fluoro-1-benzenesulfonamide], the Ki stood at 209 nM.

The experiment is the same for the next values; noted with them: Table 4; read-out: Ki (nM) hNPY-5.
As to `CCNc1nc(NCC)nc(NCCCCCn2cccn2)n1` [Example 56, N2,N4-diethyl-N6-[5-(1H-1-pyrazolyl)pentyl]-1,3,5-triazine-2,4,6-triamine], the Ki was 94400 nM.

Still in this experiment, the particulars now being: Table 5; read-out: Ki, nM hNPY-5.
For the molecule `COc1ccc(C)cc1S(=O)(=O)NCCCCCNc1nc(-c2nc(C)sc2C)cs1` [Example 93, N1-(5-[4-(2,5-Dimethyl-1,3-thiazol-4-yl)-1,3-thiazol-2-yl]aminopentyl)-2-methoxy-5-methyl-1-benzenesulfonamide], the Ki was found to be 3.6 nM.
As for `COc1ccc(C)cc1S(=O)(=O)NCCCCCNc1nc(-c2cccs2)cs1` [Example 92, N1-(5-{[4-(2-Thienyl)-1,3-thiazol-2-yl]amino}pentyl)-2-methoxy-5-methyl-1-benzenesulfonamide], the Ki stood at 7.9 nM.
Consider `COCCN(C=O)[C@H]1CC[C@H](CNc2nc(-c3nc(C)sc3C)cs2)CC1` [Example 101, trans-N-[4-([4-(2,5-Dimethyl-1,3-thiazol-4-yl)-1,3-thiazol-2-yl]aminomethyl)cyclohexyl]-N-(2-methoxyethyl)formamide], for which the Ki was 407 nM.
`O=S(=O)(NCCCCCNc1nc(-c2ccccn2)cs1)c1ccc(F)c(F)c1` [Example 64, 2-(5-(3,4-Difluorophenyl)sulfonylamino)pentylamino-4-(2-pyridyl)thiazole hydrogen chloride]: the Ki stood at 42 nM.
Take `Cc1nc(-c2csc(NCCCCCNS(=O)(=O)c3ccc(F)cc3)n2)c(C)s1` [Example 94, N1-(5-[4-(2,5-Dimethyl-1,3-thiazol-4-yl)-1,3-thiazol-2-yl]aminopentyl)-4-fluoro-1-benzenesulfonamide]: the inhibition constant Ki was found to be 19.5 nM.
As for `O=S(=O)(Cc1ccccc1)NCCCCCNc1nc(-c2ccccn2)cs1` [Example 66, 2-(5-(Benzylsulfonylamino)pentylamino-4-(2-pyridyl)thiazole hydrogen chloride], the Ki worked out at 45 nM.

The same experiment, now with this note: Table 6; read-out: Ki, nM hNPY-5.
`O=S(=O)(NCCCCCCNc1nc2c(s1)CCSc1ccccc1-2)c1cccc(C(F)(F)F)c1` [Example 144, N1-[6-(4,5-dihydrobenzo[2,3]thiepino[4,5-d][1,3]thiazol-2-ylamino)hexyl]-3-(trifluoromethyl)-1-benzenesulfonamide]: the Ki was found to be 22.4 nM.
`O=S(=O)(NC[C@H]1CC[C@H](Nc2nc3c(s2)CCSc2ccccc2-3)CC1)c1ccc(-c2ccccn2)s1` [Example 120, N2-{[4-(4,5-Dihydrobenzo[2,3]thiepino[4,5-d][1,3]thiazol-2-ylamino)cyclohexyl]methyl}-5-(2-pyridyl)-2-thiophenesulfonamide]: the Ki turned out to be 54 nM.
Turning to `O=S(=O)(NCCCCCNc1nc2c(s1)CCSc1ccccc1-2)c1ccc(F)cc1F` [Example 137, N1-[5-(4,5-Dihydrobenzo[2,3]thiepino[4,5-d][1,3]thiazol-2-ylamino)pentyl]-2,4-difluoro-1-benzenesulfonamide], the Ki came to 6.5 nM.
In the case of `Cc1cccc(F)c1S(=O)(=O)NCCCCCNc1nc2c(s1)CCSc1ccccc1-2` [Example 134, N1-[5-(4,5-Dihydrobenzo[2,3]thiepino[4,5-d][1,3]thiazol-2-ylamino)pentyl]-2-fluoro-6-methyl-1-benzenesulfonamide], the Ki was determined as 8.3 nM.
As for `COc1ccc(C)cc1S(=O)(=O)NC[C@H]1CC[C@H](Nc2nc3c(s2)CCSc2ccccc2-3)CC1` [Example 119, N1-{[4-(4,5-Dihydrobenzo[2,3]thiepino[4,5-d][1,3]thiazol-2-ylamino)cyclohexyl]methyl}-2-methoxy-5-methyl-1-benzenesulfonamide], the Ki turned out to be 14.1 nM.
Turning to `O=S(=O)(NCCCCCNc1nc2c(s1)CCSc1ccccc1-2)c1cccc2ccccc12` [Example 127, N1-[5-(4,5-Dihydrobenzo[2,3]thiepino[4,5-d][1,3]thiazol-2-ylamino)pentyl]-1-naphthalenesulfonamide], the Ki is 17.2 nM.
On to `CC(C)N(C=O)[C@H]1CC[C@H](CNc2nc3c(s2)CCSc2ccccc2-3)CC1` [Example 165, trans-N-4-[(4,5-Dihydrobenzo[2,3]thiepino[4,5-d][1,3]thiazol-2-ylamino)methyl]cyclohexyl-N-isopropylformamide], for which the Ki turned out to be 4.8 nM.
Consider `O=S(=O)(NC[C@H]1CC[C@H](Nc2nc3c(s2)CCSc2ccccc2-3)CC1)c1cccc2ccccc12` [Example 121, N1-{[4-(4,5-Dihydrobenzo[2,3]thiepino[4,5-d][1,3]thiazol-2-ylamino)cyclohexyl]methyl}-1-naphthalenesulfonamide], for which the Ki is 18.4 nM.
Take `CN(C)c1cccc2c(S(=O)(=O)NC[C@H]3CC[C@H](Nc4nc5c(s4)CCSc4ccccc4-5)CC3)cccc12` [Example 122, N1-{[4-(4,5-Dihydrobenzo[2,3]thiepino[4,5-d][1,3]thiazol-2-ylamino)cyclohexyl]methyl}-5-(dimethylamino)-1-naphthalenesulfonamide]: the Ki was found to be 27 nM.

(Values after US7189720B2 (H. Lundbeck A/S, priority 1999, dated 2007).)
